Measured values from the NIST ThermoML archive (doi:10.1016/j.fluid.2014.04.038).
± gives the expanded uncertainty stated by the source.

Details: Liquid, Hot wire method

Cc1ccccc1 [toluene]
thermal conductivity (318.8 K): 0.1241 ± 0.005 W/m/K | thermal conductivity (328.48 K): 0.1218 ± 0.0049 W/m/K | thermal conductivity (333.34 K): 0.1209 ± 0.0049 W/m/K | thermal conductivity (338.23 K): 0.1195 ± 0.0048 W/m/K | thermal conductivity (341.16 K): 0.1201 ± 0.0048 W/m/K | thermal conductivity (343.09 K): 0.1176 ± 0.0047 W/m/K | thermal conductivity (346.01 K): 0.116 ± 0.0047 W/m/K | thermal conductivity (350.87 K): 0.1149 ± 0.0046 W/m/K | thermal conductivity (355.71 K): 0.1151 ± 0.0046 W/m/K | thermal conductivity (365.42 K): 0.1116 ± 0.0045 W/m/K | thermal conductivity (370.29 K): 0.1112 ± 0.0045 W/m/K
